Measurements published in patent US9192680B2, “Pharmaceutical compounds” (APOSENSE LTD., priority 2010, dated 2015).
Where two headings read alike, the source gives them in different places.

Assays:
[1] = tested on: OVCAR-3 ovarian carcinoma tumors; test: Xenograft model of ovarian carcinoma; format: in vivo, athymic nude mice; details: for growth inhibition vs. the control group: one week post last administration
Excerpt: Tumor-bearing mice, injected only with the vehicle solution served as the control group.

[2] = tested on: Mia-PaCa pancreatic carcinoma tumors; test: Xenograft model of pancreatic carcinoma
[3] = Maximal tolerated dose (MTD); details: female, athymic nude, mouse, in vivo, ip; intraperitoneally, once a week for three weeks, nude mice; read-out: maximal tolerate dose (MTD)
Protocol: Drug treatment was initiated on day 11, when tumors reached an average volume of 119 mm^3 ATT-11T was administered in a vehicle comprising 5% DMSO, 5% NMP, 10% ETOH, 40% PEG-400 and 40% PG. […] . […] The drugs were administered intraperitoneally.

[4] = Pharmacokinetics after single intravenous administration; format: in vivo, beagle dogs; details: 6 mg/kg single i.v.
Protocol: The stock solution was diluted 10-fold in 10% bovine serum albumin solution in 0.1M sodium phosphate buffer (pH 5.8) and mixed by vortex until a homogeneous emulsion was obtained. […] Fresh formulations of both drugs were prepared prior to each administration, and the drugs were administrated by a slow bolus injection within approximately 3 minutes, at a dose of 6 mg/kg (1.2 ml/kg), adjusted to the individual animal body weight.
Plasma was separated by centrifugation, and stored at −70° C. until HPLC analysis. WinNonlin™ software was used for the analysis of the pharmacokinetic data.

[5] = tested on: H-82 SCLC tumors; test: Xenograft model of small-cell lung carcinoma
[6] = tested on: A375-melanoma cells; test: Cytotoxicity in cultured A375-melanoma cells (XTT cell viability); format: cell-based; details: Homo sapiens, read-out: IC50 (drug concentration that inhibited 50% of the cell growth)
Protocol: Cells were grown in RPMI 1640 (Gibco, UK) supplemented with 10% FBS (Gibco, UK) 2 mM of L-glutamin (Gibco, UK), 20 mM HEPES buffer (Beit-Haemek, Israel), 100 units/ml of penicillin, and 100 μg/ml of streptomycin (Gibco, UK). Cells were cultured in humidified atmosphere containing 5% CO2 at 37° C. Medium was routinely changed twice a week, and cells were sub-cultured with 0.25% trypsin/EDTA (Beit-Haemek, Israel) when reaching 85% confluence.
ATT-11T was produced by Aptuit-Laurus (India). The compound was dissolved in DMSO. […] The cells were incubated for 24 hours at 37° C. with serial dilutions of ATT-11T (or CPT 11), dissolved in growing medium. Cell viability was then determined, using the XTT reagent (Beit-Haemek, Israel). At the end of the incubation period, tetrazolium dye was added, and formation of a colored product formazan was measured at 450 nm using a microplate reader (ELx800, Bio-Tek instruments Inc.). Cell viability vs. drug concentration was plotted, and data were fitted with a non-linear regression analysis using GraphPad prisma ver.5.0 software. […]

[7] = Adverse effects and body weight in A375 tumor-bearing mice; format: in vivo, nude mice; details: for gain of initial body weight: day 1 of treatment up to day 29 of inoculation
Protocol: For the evaluation of potential adverse effects of ATT-11T, nude mice, bearing the A375 melanoma tumors and treated with ATT-11T as described above, were monitored for adverse effects immediacy after drug administration, and also twice a week, through one day after last dose. The evaluation protocol consisted of gross observation, registration of abnormal signs, and determination of body weight. Potential body weight loss (BWL) was calculated as % BWL=100−(BWdays/BWday1×100), where day 1 is the first day of treatment and day x is the day of assessment thereafter.

[8] = tested on: SW-620 colorectal carcinoma tumors; format: in vivo, athymic nude mice; details: for tumor growth inhibition: one week after the last administration
Protocol: Drug treatment was initiated on day 11, when tumors reached an average volume of 119 mm^3 ATT-11T was administered in a vehicle comprising 5% DMSO, 5% NMP, 10% ETOH, 40% PEG-400 and 40% PG. […] The drugs were administered intraperitoneally.

[9] = tested on: A375 melanoma tumors; test: Xenograft model of melanoma: tumor regression, growth inhibition and growth delay; format: in vivo, athymic nude mice; details: for Tumor volume inhibition (TVI): one week after the last dose; for tumor growth at day 30 after the last dose: 58 days after tumor cell inoculation; for growth inhibition: one week after last administration
Protocol: Tumor-bearing mice, injected only with the vehicle solution served as controls.
ATT11-T (Aptuit-Luarus, India) was administered in a vehicle as described above. Tumor-bearing mice injected only with the vehicle solution served as controls. […] Tumor volume was evaluated as described above.
Drug-induced delay in tumor growth was assessed by two measures: (i). Tumor volume inhibition (TVI %) at one week after the last treatment in treated versus control tumors, which was calculated according to the Formula TVI (%)=(1-T/C)×100, where T and C are the tumor volume of the treated and control groups, respectively; and (ii). Tumor growth delay (TGD), assessed as the time period (days) of treatment-induced delay in tumor reaching a pre-determined volume of 3,500 mm^3, as compared to the vehicle-treated controls.

[10] = 20 mg/kg i.v. once a week for 3 weeks
[11] = 40 mg/kg i.v. once a week for 3 weeks

SMILES: CCc1c2c(nc3ccc(OC(=O)N4CCC(CCC(C)(COC(C)(C)C)COC(C)(C)C)CC4)cc13)-c1cc3c(c(=O)n1C2)COC(=O)C3(O)CC (centres unmarked) [ATT-11T]
- growth inhibition vs. the control group ([1]; 20 mg/kg i.v. once a week for three weeks): 99%
- average tumor volume ([1]; 20 mg/kg i.v., day 42 (21 days post last dose)): 46 mm^3
- % tumor growth delay (% TGD) to 1,000 mm^3 [2, 10]: 86%
- days post tumor inoculation to reach average tumor volume of 1,000 mm^3 [2, 10]: 39 days
- tumor growth inhibition (TGI) ([2]; 20 mg/kg i.v. once a week for 3 weeks, one week after the last administration): 48%
- % tumor growth delay (% TGD) to 1,000 mm^3 [2, 11]: 152%
- days post tumor inoculation to reach average tumor volume of 1,000 mm^3 [2, 11]: 53 days
- tumor growth inhibition (TGI) vs. control tumors ([2]; 40 mg/kg i.v. once a week for 3 weeks, one week after the last administration): 86%
- MTD at 3 weeks [3]: 150 mg/kg
- plasma level of derived SN-38 at 48 hours after administration ([4]; dogs): still detectable
- AUC of ATT-11T relative to that of CPT-11 ([4]; dogs, parent drug): 4 fold
- increase in t1/2 of ATT-11T over CPT-11 ([4]; dogs, parent drug): 3.8 fold
- half-life ([4]; dog, in vivo, iv, female beagle dogs, read-out: plasma half-life (t1/2) of the parent drug (converted)): 25.6 h
- tumor growth inhibition vs. the control group ([5]; 40 mg/kg i.v. once a week for three weeks): 92%
- IC50 ([6]; A-375, 24 h): 3.3 µM
- gain of initial body weight ([7]; 5 mg/kg): 7%
- gain of initial body weight ([7]; 20 mg/kg): 5%
- tolerability (adverse effects, weight loss) ([7]; both doses, 5 and 20 mg/kg): well-tolerated
- tumor growth 136 days post last treatment (161 days post tumor inoculation) ([8]; MTD 150 mg/kg i.p.): no tumor growth
- tumor growth inhibition ([8]; MTD 150 mg/kg intraperitoneally once a week for three weeks): 100%
- Tumor volume inhibition (TVI) ([9]; 5 mg/kg i.v. twice a week for three weeks): 100%
- tumor growth at day 30 after the last dose ([9]; 5 mg/kg): little
- Tumor volume inhibition (TVI) ([9]; 20 mg/kg i.v. twice a week for three weeks): 100%
- tumor growth at day 30 after the last dose ([9]; 20 mg/kg): no growth
- growth inhibition ([9]; ATT-11T 5 mg/kg i.v. three times a week for three weeks): 100%
- growth inhibition ([9]; ATT-11T 20 mg/kg i.v. three times a week for three weeks): 100%

SMILES: CCc1c2c(nc3ccc(OC(=O)N4CCC(N5CCCCC5)CC4)cc13)-c1cc3c(c(=O)n1C2)COC(=O)[C@]3(O)CC [CPT-11, irinotecan, reference compound]
- growth inhibition vs. the control group ([1]; 18 mg/kg i.v. once a week for three weeks): 83%
- % tumor growth delay (% TGD) to 1,000 mm^3 ([2]; 18 mg/kg i.v. (equimolar to 20 mg/kg ATT-11T)): 43%
- % tumor growth delay (% TGD) to 1,000 mm^3 ([2]; 36 mg/kg i.v. (equimolar to 40 mg/kg ATT-11T)): 76%
- tumor growth inhibition (TGI) vs. control tumors ([2]; 36 mg/kg i.v. once a week for 3 weeks, one week after the last administration): 42%
- MTD [3]: 100 mg/kg
- plasma level of derived SN-38 at 24 hours after administration ([4]; dogs): below detection level
- tumor growth inhibition vs. the control group ([5]; 36 mg/kg i.v. once a week for three weeks): 67%
- IC50 ([6]; A-375, A375 cells, 24 hours incubation, XTT): 10.1 µM
- tumor growth inhibition ([8]; […]): 85%
